Measurements reported in US20090143392A1, “Methods of Treating Obesity and Metabolic Disorders” (ELBION GMBH, priority 2007, published 2009).

Molecular target: T1, PDE10 from pig striatum (Sus scrofa, UniProt A0A287B941)
T1 construct: "Striatum from male hybrid pigs (150 kg)"
Assay: Inhibition of PDE10 from pig striatum
Assay type: biochemical
Details: 0.1 μM [3H]-cAMP, 37° C., 30 minutes
Method: Phosphodiesterase isoenzyme 10 (PDE10) activity was determined in preparations of human recombinant PDE10A and PDE10 from pig striatum, respectively.
Striatum from male hybrid pigs (150 kg) were collected and frozen at −70° C.
At the day of preparation 0.5 g striatum was homogenised in 10 ml 50 mM Tris/Mg-buffer at 4° C. and centrifuged for one hour at 100000 g.
Nonspecific activity was tested without the enzyme. […] For determination of IC50 values the Hill-plot, 2-parameter-model, was used.
Phosphodiesterase isoenzyme 10 (PDE10) activity was determined in preparations of rat, pig and guinea pig striatum respectively. Striatum from male Wistar rats (180-200 g), male hybrid pigs (150 kg) and male guinea pigs (CRL (HA), 500 g) respectively were collected and frozen at −70° C.
For the enzymatic testing of PDE10 activity 0.5 g of the isolated and frozen striatum was homogenised in 10 ml 50 mM Tris/Mg-buffer at 4° C. and centrifuged for one hour at 100000 g.

Row | Compound | IC50
1 | 1-propyl-3,4-dimethyl-imidazo[1,5-a]pyrido[3,2-e]pyrazine [Example 52a] | 53 nM
2 | 3,4-dimethyl-8-methoxy-1-phenyl-imidazo[1,5-a]pyrido[3,2-e]pyrazine dihydrochloride [Example 48a] | 7 nM
3 | 3,4-dimethyl-8-methoxy-1-(3,3,3-trifluoropropyl)-imidazo[1,5-a]pyrido[3,2-e]pyrazine [Example 42a] | 59 nM
4 | 8-methoxy-3-methyl-1-propyl-4-ureido-imidazo[1,5-a]pyrido[3,2-e]pyrazine [Example 67a] | 83 nM
5 | 8-methoxy-4-(methoxycarbonyl-methyl-amino)-3-methyl-1-propyl-imidazo[1,5-a]pyrido[3,2-e]pyrazine [Example 65a] | 559 nM
6 | 4-ethylsulfonylamino-8-methoxy-3-methyl-1-propyl-imidazo[1,5-a]pyrido[3,2-e]pyrazine [Example 71a] | 126 nM
7 | 4-amino-1-hexyl-8-methoxy-3-methyl-imidazo[1,5-a]pyrido[3,2-e]pyrazine [Example 7b] | 48 nM
8 | 8-methoxy-3-methyl-4-(3-methyl-ureido)-1-propyl-imidazo[1,5-a]pyrido[3,2-e]pyrazine [Example 66a] | 752 nM
9 | 3,4-dimethyl-1-hexyl-8-methoxy-imidazo[1,5-a]pyrido[3,2-e]pyrazine [Example 45a] | 53 nM
10 | 4-isopropylsulfonylamino-8-methoxy-3-methyl-1-propyl-imidazo[1,5-a]pyrido[3,2-e]pyrazine [Example 75a] | 78 nM

The remaining compounds from weak to strong by IC50, led by results:

Row | IC50 | Compound
11 | 43 nM | CCCc1ncc2c(C)nc3ccc(OC)nc3n12 [Example 53a]
12 | 38 nM | 4-amino-8-methoxy-3-methyl-1-phenethyl-imidazo[1,5-a]pyrido[3,2-e]pyrazine [Example 9b]
13 | 37 nM | 8-methoxy-3-methyl-1-phenethyl-4-methylsulfonylamino-imidazo[1,5-a]pyrido[3,2-e]pyrazine [Example 80a]
14 | 35 nM | 3,4-dimethyl-8-methoxy-1-pentyl-imidazo[1,5-a]pyrido[3,2-e]pyrazine [Example 43a]
15 | 23 nM | 8-methoxy-3-methyl-5-oxo-1-propyl-imidazo[1,5-a]pyrido[3,2-e]pyrazine [Example 60a]
16 | 23 nM | 3-methyl-4-methylsulfonylamino-1-propyl-imidazo[1,5-a]pyrido[3,2-e]pyrazin-8-ol [Example 86a]
17 | 19 nM | 8-methoxy-3-methyl-1-propyl-4-trifluoromethylsulfonylamino-imidazo[1,5-a]pyrido[3,2-e]pyrazine [Example 73a]
18 | 18 nM | 8-difluoromethoxy-3,4-dimethyl-1-propyl-imidazo[1,5-a]pyrido[3,2-e]pyrazine [Example 54a]
19 | 15 nM | 8-difluoromethoxy-3-methyl-4-methylsulfonylamino-1-propyl-imidazo[1,5-a]pyrido[3,2-e]pyrazine [Example 87a]
20 | 11 nM | 4-difluoromethoxy-3-methyl-1-propyl-imidazo[1,5-a]pyrido[3,2-e]pyrazine-8-ol [Example 59a]
21 | 11 nM | 1-hexyl-8-methoxy-3-methyl-4-methylsulfonylamino-imidazo[1,5-a]pyrido[3,2-e]pyrazine [Example 79a]
22 | 8 nM | 4-chloro-8-difluoromethoxy-3-methyl-1-propyl-imidazo[1,5-a]pyrido[3,2-e]pyrazine [Intermediate A28]
23 | 5 nM | CCCc1nc(C)c2c(Cl)nc3ccc(N4CCCCC4)nc3n12 [Intermediate A21]
24 | 3 nM | 1-cyclohexyl-3,4-dimethyl-8-methoxy-imidazo[1,5-a]pyrido[3,2-e]pyrazine [Example 44a]
25 | 1 nM | 3,4-dimethyl-8-methoxy-1-(2-chlorophenyl)-imidazo[1,5-a]pyrido[3,2-e]pyrazine [Example 49a]
